What all share (format): functional
Experiment [1] in a line: Antioxidant activity assessed as hydroxyl radical scavenging activity preincubated for 20 mins followed by salicylic acid addition measured after 60 mins by fenton reaction method relative to control.
The nature of experiment [2]: Antioxidant activity assessed as inhibition of superoxide radical generation after 4 mins by pyrogallol autoxidation method.
Experiment [3] can be described thus: Antioxidant activity assessed as ABTS radical scavenging activity at 2.5 mg/ml after 6 mins relative to control.
The nature of experiment [4]: Antioxidant activity assessed as DPPH radical scavenging activity at 2.5 mg/ml after 30 mins by absorbance method relative to control.
Experiment [5] is described as follows: Antioxidant activity assessed as hydroxyl radical scavenging activity at 2.5 mg/ml preincubated for 20 mins followed by salicylic acid addition measured after 60 mins by fenton reaction method relative to control.
Experiment [6] is described as follows: Antioxidant activity assessed as inhibition of superoxide radical generation at 2.5 mg/ml after 4 mins by pyrogallol autoxidation method relative to control.
The nature of experiment [7]: Antioxidant activity assessed as DPPH radical scavenging activity up to 0.6 mg/ml after 30 mins by absorbance method relative to control.
Experiment [8] can be described thus: Antioxidant activity assessed as inhibition of superoxide radical generation up to 0.6 mg/ml after 4 mins by pyrogallol autoxidation method relative to control.

SMILES strings stand for the structures. Active and inactive are the calls of the source. The rule behind the calls is not given here.

With `OCOC1COC(S)(O[C@@H]2O[C@H](CO)[C@@H](O)[C@H](O)[C@H]2O)C1OCO` (stereo not given in full), the Activity result is “Dose-dependent effect” in experiment [1], 83.3% in experiment [3], 83.9% in experiment [4] and 76.2% in experiment [5]. Further, the inhibition entry is “Dose-dependent effect” in experiment [2] and 73.9% in experiment [6].

Take `O=C1O[C@H]([C@@H](O)CO)C(O)=C1O`: the outcome in experiment [7] was Active. Further, in experiment [8], the inhibition result was “Active”. Further, the Activity in experiment [3] came to 96.8%; in experiment [5], 94.9%.

Source of the values: ChEMBL document CHEMBL4219192, “Structural analysis and antioxidant activity of the glycoside from Imperial Chrysanthemum” (Bioorg Med Chem Lett, 2018).
